In ChEMBL document CHEMBL3039007, “Structure-based identification of OATP1B1/3 inhibitors” (Mol Pharmacol, 2013):
Residues, ends and D or L forms follow the SMILES beside them.

How the values were obtained:
[1] = molecular target: T1, Solute carrier organic anion transporter family member 1B3 (Homo sapiens, UniProt Q9NPD5); conditions: chinese hamster, cho, 10 µM
T1 sequence (Q9NPD5 whole entry): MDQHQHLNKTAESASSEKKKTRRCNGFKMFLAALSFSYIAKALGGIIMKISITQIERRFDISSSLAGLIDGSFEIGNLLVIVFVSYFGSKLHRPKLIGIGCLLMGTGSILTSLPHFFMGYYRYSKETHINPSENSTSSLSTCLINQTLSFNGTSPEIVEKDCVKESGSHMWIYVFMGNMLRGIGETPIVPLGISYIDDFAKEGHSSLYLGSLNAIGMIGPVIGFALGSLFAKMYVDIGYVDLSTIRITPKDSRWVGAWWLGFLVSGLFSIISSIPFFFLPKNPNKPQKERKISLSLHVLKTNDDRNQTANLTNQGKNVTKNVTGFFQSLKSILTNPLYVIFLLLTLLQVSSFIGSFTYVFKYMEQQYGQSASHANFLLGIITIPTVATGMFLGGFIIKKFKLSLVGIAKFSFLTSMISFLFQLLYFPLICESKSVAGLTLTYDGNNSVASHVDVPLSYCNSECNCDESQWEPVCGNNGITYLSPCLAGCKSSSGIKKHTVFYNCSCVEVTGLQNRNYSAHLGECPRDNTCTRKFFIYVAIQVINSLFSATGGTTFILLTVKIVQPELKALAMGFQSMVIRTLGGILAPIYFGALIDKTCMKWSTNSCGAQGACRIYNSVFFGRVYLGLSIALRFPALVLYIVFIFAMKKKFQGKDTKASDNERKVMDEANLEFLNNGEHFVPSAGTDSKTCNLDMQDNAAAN

[2] = molecular target: T2, Solute carrier organic anion transporter family member 1B1 (Homo sapiens, UniProt Q9Y6L6); conditions: chinese hamster, cho, 10 µM
T2 sequence (Q9Y6L6 whole entry): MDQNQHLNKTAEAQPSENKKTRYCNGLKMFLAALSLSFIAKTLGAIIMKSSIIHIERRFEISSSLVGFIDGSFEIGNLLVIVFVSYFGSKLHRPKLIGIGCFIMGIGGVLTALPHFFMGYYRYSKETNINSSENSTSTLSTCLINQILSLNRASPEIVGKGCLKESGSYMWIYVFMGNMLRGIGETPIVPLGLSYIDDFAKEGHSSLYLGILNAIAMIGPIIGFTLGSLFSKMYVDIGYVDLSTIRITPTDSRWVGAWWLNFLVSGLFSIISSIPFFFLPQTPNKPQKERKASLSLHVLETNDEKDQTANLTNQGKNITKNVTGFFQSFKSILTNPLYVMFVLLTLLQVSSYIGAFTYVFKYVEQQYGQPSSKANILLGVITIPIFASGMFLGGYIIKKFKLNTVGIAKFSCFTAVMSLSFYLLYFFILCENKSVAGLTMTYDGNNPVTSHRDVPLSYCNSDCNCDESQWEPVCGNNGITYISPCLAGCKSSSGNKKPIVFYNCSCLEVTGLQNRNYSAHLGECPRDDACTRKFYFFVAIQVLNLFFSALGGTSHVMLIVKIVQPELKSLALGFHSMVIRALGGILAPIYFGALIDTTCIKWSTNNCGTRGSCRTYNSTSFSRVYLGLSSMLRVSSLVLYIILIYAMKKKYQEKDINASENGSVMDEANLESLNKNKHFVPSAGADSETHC

Row | Compound | residual activity [1] | residual activity [2]
1 | C=C(C)c1cc2cc(C(C)=O)c(O)cc2o1 [EUPARIN] | 98.85% | 94.93%
2 | CCN(CC)CCOC(=O)C(c1ccccc1)c1ccccc1.Cl [ADIPHENINE HYDROCHLORIDE] | 95.82% | 59.48%
3 | C=C1[C@H]2CC[C@@]3(C)[C@H](c4ccoc4)OC(=O)C[C@]13O[C@H]1C[C@H](O)C(C)(C)[C@H](CC(=O)OC)[C@]12C [3-DEOXY-3beta-HYDROXYANGOLENSIC ACID METHYL ESTER] | 59.13% | 50.95%
4 | CCNC(=O)CC[C@H](N)C(=O)O [THEANINE] | 82.21% | 120.6%
5 | CC(N/C(=N\C#N)Nc1ccncc1)C(C)(C)C (stereo not given) [PINACIDIL ANHYDROUS] | 90.66% | 96.43%
6 | CC(=O)N[C@@H](CS)C(=O)O [ACETYLCYSTEINE] | 89.21% | 82.21%
7 | COc1cc(NS(=O)(=O)c2ccc(N)cc2)ncn1 [SULFAMONOMETHOXINE] | 105.3% | 109.8%
8 | CC(C)(C)N.CCC[C@H](N[C@@H](C)C(=O)N1[C@H](C(=O)O)C[C@@H]2CCCC[C@@H]21)C(=O)OCC [PERINDOPRIL ERBUMINE] | 81.39% | 107.5%
9 | COP(N)(=O)SC (stereo not given) [METHAMIDOPHOS] | 106% | 96.41%
10 | c1cc2c(cc1[C@H]1OC[C@H]3[C@@H]1CO[C@H]3c1ccc3c(c1)OCO3)OCO2 [ASARININ] | 116.8% | 107.7%
11 | CCN(CC)CCOC(=O)C(c1ccccc1)C1CCCCC1.Cl (stereo not given) [DROFENINE HYDROCHLORIDE] | 112.3% | 99.44%
12 | CCC1(CC)C(=O)C=CNC1=O [PYRITHYLDIONE] | 101.3% | 106.5%
13 | N[C@H](C(=O)O)[C@@H]1CC(Cl)=NO1 [ACIVICIN] | 113.3% | 137.7%
14 | CCC(=O)Nc1ccc(Cl)c(Cl)c1 [PROPANIL] | 115.2% | 92.07%
15 | Cc1ccc(S(=O)(=O)NC(=O)NN2CC3CCCC3C2)cc1 (stereo not given) [GLICLAZIDE] | 113.3% | 106.3%
16 | Nc1nc(=O)c2c([nH]1)NCC(CNc1ccc(C(=O)N[C@@H](CCC(=O)[O-])C(=O)[O-])cc1)N2C=O.[Ca+2] (stereo not given in full) [LEUCOVORIN CALCIUM] | 90.54% | 80.81%
17 | Cl.Cl.NCCSSCCN [CYSTAMINE DIHYDROCHLORIDE] | 89.2% | 111.3%
18 | O=C1N=C([O-])NC1(c1ccccc1)c1ccccc1.[Na+] [PHENYTOIN SODIUM] | 97.47% | 95.94%
19 | COc1cccc(OC)c1OCCNCC1COc2ccccc2O1.Cl (stereo not given) [2- (2,6-DIMETHOXYPHENOXYETHYL)AMINOMETHYL-1,4-BENZODIOXANE HYDROCHLORIDE (WB 4101)] | 96.02% | 247.1%
20 | O=C1NS(=O)(=O)c2ccccc21 [SACCHARIN] | 110.9% | 112.4%
21 | Nc1nc(N)c2nc(CNc3ccc(C(=O)N[C@@H](CCC(=O)O)C(=O)O)cc3)cnc2n1 [AMINOPTERIN] | 124.5% | 89.56%
22 | COc1c2ccoc2c(OC)c2oc(=O)ccc12 [ISOPIMPINELLIN] | 29.02% | 84.51%
23 | CCC(C(N)=O)c1ccccc1 (stereo not given) [FENBUTYRAMIDE] | 100.4% | 101.6%
24 | O=C(O)c1nc2cc(Cl)c(Cl)cc2nc1O [6,7-DICHLORO-3-HYDROXY-2-QUINOXALINECARBOXYLIC ACID] | 108% | 119%
25 | N[C@@H](Cc1ccccc1)C(=O)N[C@@H](Cc1ccc(O)cc1)C(=O)O [PHENYLALANYLTYROSINE] (H-Phe-Tyr-OH) | 68.6% | 78.59%
